IC50 data for ten molecules are collected here from patent publication US11078228B2, “Ectonucleotidase inhibitors and methods of use thereof” (Calithera Biosciences, Inc., priority 2018, dated 2021).

pIC50: −log10 of the molar value. A value given as a limit tells only on which side of the number the result lay.

Sequence of recombinant CD73 (P21589 27-547): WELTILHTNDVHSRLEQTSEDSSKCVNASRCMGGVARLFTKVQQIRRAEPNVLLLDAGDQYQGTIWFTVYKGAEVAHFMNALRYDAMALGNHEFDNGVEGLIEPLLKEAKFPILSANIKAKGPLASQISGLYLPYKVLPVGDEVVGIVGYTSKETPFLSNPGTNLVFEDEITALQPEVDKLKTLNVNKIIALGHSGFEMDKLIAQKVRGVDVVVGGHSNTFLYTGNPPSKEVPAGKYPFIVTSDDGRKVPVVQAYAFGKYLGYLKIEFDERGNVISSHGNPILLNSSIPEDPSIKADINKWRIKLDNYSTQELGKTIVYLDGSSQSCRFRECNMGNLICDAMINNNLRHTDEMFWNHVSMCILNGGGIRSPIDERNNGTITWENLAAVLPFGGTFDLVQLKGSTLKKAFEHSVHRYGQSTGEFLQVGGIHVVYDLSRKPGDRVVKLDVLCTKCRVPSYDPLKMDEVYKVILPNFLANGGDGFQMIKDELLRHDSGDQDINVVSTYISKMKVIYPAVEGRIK

This assay concerns the target recombinant CD73 (Homo sapiens (Human), UniProt P21589). The assay can be described thus: Assay 2: Inhibition of the CD73 enzyme in vitro (0.05 nM CD73, 1 hour 37° C., Malachite Green). It counts as biochemical. The following applies: 0.05 nM CD73, 50 μM AMP, 1 hour at 37° C. In a few lines: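 Free phosphate was quantified from absorbance at 630 nm against a phosphate standard curve. This was read 5 min after Malachite Green was added at room temperature. Beforehand, the recombinant soluble enzyme reacted for 1 hour at 37° C.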
For orientation: pIC50 means −log10 of the IC50, conventionally taken in molar units. On to `C#C[C@@]1(O)[C@@H](COC(Cc2ccccc2)(C(=O)O)C(=O)O)O[C@@H](n2cnc3c(N(CC)CC)nc(Cl)nc32)[C@@H]1O` [Example 96, 2-benzyl-2-(((2R,3S,4R,5R)-5-(2-chloro-6-(diethylamino)-9H-purin-9-yl)-3-ethynyl-3,4-dihydroxytetrahydrofuran-2-yl)methoxy)malonic acid], for which the pIC50 was 8.52.
The same measure for `C#C[C@@]1(O)[C@@H](COC(Cc2ccccc2)(C(=O)O)C(=O)O)O[C@@H](n2cnc3c(N[C@@H](C)c4ccccc4)nc(Cl)nc32)[C@@H]1O` [Example 63, 2-benzyl-2-(((2R,3S,4R,5R)-5-(2-chloro-6-(((S)-1-phenylethyl)amino)-9H-purin-9-yl)-3-ethynyl-3,4-dihydroxytetrahydrofuran-2-yl)methoxy)malonic acid]: 9.00; for `C#C[C@@]1(O)[C@@H](COC(Cc2ccc(-c3ccccc3)cc2)(C(=O)O)C(=O)O)O[C@@H](n2cnc3c(N)nc(Cl)nc32)[C@@H]1O` [Example 53, 2-([1,1′-biphenyl]-4-ylmethyl)-2-(((2R,3S,4R,5R)-5-(6-amino-2-chloro-9H-purin-9-yl)-3-ethynyl-3,4-dihydroxytetrahydrofuran-2-yl)methoxy)malonic acid]: 9.52; for `CC[C@@]1(O)[C@@H](COC(Cc2ccccc2)(C(=O)O)C(=O)O)O[C@@H](n2cnc3c(N)nc(Cl)nc32)[C@@H]1O` [Example 56, 2-(((2R,3S,4R,5R)-5-(6-amino-2-chloro-9H-purin-9-yl)-3-ethyl-3,4-dihydroxytetrahydrofuran-2-yl)methoxy)-2-benzylmalonic acid]: < 6.70.
Regarding `C#C[C@@]1(O)[C@@H](COC(Cc2ccc(N3CCCNC3=O)cc2)(C(=O)O)C(=O)O)O[C@@H](n2cnc3c(NCC4CC4)nc(Cl)nc32)[C@@H]1O` [Example 136, 2-(((2R,3S,4R,5R)-5-(2-chloro-6-((cyclopropylmethyl)amino)-9H-purin-9-yl)-3-ethynyl-3,4-dihydroxytetrahydrofuran-2-yl)methoxy)-2-(4-(2-oxotetrahydropyrimidin-1(2H)-yl)benzyl)malonic acid], the pIC50 was 9.62.
The same measure for `C#C[C@@]1(O)[C@@H](COC(Cc2ccoc2)(C(=O)O)C(=O)O)O[C@@H](n2cnc3c(N)nc(Cl)nc32)[C@@H]1O` [Compound 8, 2-(((2R,3S,4R,5R)-5-(6-amino-2-chloro-9H-purin-9-yl)-3-ethynyl-3,4-dihydroxytetrahydrofuran-2-yl)methoxy)-2-(furan-3-ylmethyl)malonic acid]: 8.70; for `C#C[C@@]1(O)[C@@H](COC(C(=O)O)C(=O)O)O[C@@H](n2cnc3c(NC)nc(Cl)nc32)[C@@H]1O` [Example 117, 2-(((2R,3S,4R,5R)-5-(2-chloro-6-(methylamino)-9H-purin-9-yl)-3-ethynyl-3,4-dihydroxytetrahydrofuran-2-yl)methoxy)malonic acid]: 7.24.
Turning to `C#C[C@@]1(O)[C@@H](COC(Cc2cc(C)on2)(C(=O)O)C(=O)O)O[C@@H](n2cnc3c(NC(C)C)nc(Cl)nc32)[C@@H]1O` [Example 110, 2-(((2R,3S,4R,5R)-5-(2-chloro-6-(isopropylamino)-9H-purin-9-yl)-3-ethynyl-3,4-dihydroxytetrahydrofuran-2-yl)methoxy)-2-((5-methylisoxazol-3-yl)methyl)malonic acid], the pIC50 is 8.52.
On to `C#C[C@@]1(O)[C@@H](COC(Cc2ccncc2)(C(=O)O)C(=O)O)O[C@@H](n2cnc3c(N)nc(Cl)nc32)[C@@H]1O` [Compound 7, 2-(((2R,3S,4R,5R)-5-(6-amino-2-chloro-9H-purin-9-yl)-3-ethynyl-3,4-dihydroxytetrahydrofuran-2-yl)methoxy)-2-(pyridin-4-ylmethyl)malonic acid], for which the pIC50 was 8.10.
As to `C=C[C@@]1(O)[C@@H](COC(Cc2ccccc2)(C(=O)O)C(=O)O)O[C@@H](n2cnc3c(N)nc(Cl)nc32)[C@@H]1O` [Example 57, 2-(((2R,3S,4R,5R)-5-(6-amino-2-chloro-9H-purin-9-yl)-3,4-dihydroxy-3-vinyltetrahydrofuran-2-yl)methoxy)-2-benzylmalonic acid], the pIC50 was 6.99.
